# Values of other authors, collected in article PMC5891061, “Electrophysiological mechanisms of vandetanib-induced cardiotoxicity: Comparison of action potentials in rabbit Purkinje fibers and pluripotent stem cell-derived cardiomyocytes” (PLoS ONE, 2018).
# Tests used:
# hiPSC-CMs = settings: cited from earlier work
# INa in hiPSC-CMs = INa in hiPSC-CMs (Homo sapiens, UniProt Q14524); settings: hiPSC-CMs compared with HEK293 cells; cited from earlier work
# Chain of INa in hiPSC-CMs (Q14524 212-1075 limits assumed): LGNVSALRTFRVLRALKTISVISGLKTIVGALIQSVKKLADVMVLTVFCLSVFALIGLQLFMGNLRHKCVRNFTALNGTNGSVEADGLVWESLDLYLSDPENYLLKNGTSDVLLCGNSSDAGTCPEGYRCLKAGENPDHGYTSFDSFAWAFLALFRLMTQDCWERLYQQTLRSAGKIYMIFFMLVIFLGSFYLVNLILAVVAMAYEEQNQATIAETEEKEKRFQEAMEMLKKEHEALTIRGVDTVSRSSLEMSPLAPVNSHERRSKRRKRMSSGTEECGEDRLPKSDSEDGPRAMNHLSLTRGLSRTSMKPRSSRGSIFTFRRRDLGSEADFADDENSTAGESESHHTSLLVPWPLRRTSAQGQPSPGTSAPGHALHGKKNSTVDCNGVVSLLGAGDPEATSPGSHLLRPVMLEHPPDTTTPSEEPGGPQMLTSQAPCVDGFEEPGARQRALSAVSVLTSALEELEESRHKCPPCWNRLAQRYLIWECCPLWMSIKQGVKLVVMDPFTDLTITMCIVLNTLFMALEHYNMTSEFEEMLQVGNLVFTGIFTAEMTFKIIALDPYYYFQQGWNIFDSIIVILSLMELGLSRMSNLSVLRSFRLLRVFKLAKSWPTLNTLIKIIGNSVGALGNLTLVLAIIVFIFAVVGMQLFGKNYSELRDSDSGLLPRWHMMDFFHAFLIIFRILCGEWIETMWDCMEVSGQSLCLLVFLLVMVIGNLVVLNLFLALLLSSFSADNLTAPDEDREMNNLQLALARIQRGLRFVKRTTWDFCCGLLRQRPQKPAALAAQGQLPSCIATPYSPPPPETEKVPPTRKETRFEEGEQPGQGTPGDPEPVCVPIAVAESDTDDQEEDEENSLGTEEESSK
# Chain of INa in hiPSC-CMs (Q14524 1131-2016 limits assumed): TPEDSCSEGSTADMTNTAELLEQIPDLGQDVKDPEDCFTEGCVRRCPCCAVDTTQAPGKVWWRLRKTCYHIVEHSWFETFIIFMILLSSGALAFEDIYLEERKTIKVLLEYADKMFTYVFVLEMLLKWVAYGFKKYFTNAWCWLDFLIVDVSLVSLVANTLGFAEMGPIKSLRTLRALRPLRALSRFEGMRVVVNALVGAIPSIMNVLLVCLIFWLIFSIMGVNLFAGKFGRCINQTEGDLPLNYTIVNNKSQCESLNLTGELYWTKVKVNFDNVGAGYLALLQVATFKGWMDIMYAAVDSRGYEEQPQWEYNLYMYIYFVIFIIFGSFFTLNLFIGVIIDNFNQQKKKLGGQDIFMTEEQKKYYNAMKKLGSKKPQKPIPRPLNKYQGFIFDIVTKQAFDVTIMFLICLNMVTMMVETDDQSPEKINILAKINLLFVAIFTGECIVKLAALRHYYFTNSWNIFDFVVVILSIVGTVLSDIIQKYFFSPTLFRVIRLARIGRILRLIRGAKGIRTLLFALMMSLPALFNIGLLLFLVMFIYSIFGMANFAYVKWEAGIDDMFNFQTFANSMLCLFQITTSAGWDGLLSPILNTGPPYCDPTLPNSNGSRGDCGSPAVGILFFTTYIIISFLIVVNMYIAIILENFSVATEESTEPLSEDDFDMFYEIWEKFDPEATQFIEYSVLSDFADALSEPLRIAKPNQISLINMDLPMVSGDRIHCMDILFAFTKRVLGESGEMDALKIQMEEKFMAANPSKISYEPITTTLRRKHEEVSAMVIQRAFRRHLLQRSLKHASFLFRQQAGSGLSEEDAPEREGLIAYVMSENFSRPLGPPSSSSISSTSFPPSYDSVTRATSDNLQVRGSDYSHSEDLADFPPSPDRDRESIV
smiles,measurement,setting,value
CCc1nn(CCCN2CCN(c3cccc(Cl)c3)CC2)c(=O)n1CCOc1ccccc1 [nefazodone],Effect on Vmax,hiPSC-CMs,significantly decreased
same,"Block of INa, sensitivity",INa in hiPSC-CMs,greater sensitivity than in HEK293 cells
